pIC50: −log10 of the molar value. Calls of active or inactive are those of the source. The calls are words filed in the database; no cut-off is given here.
Columns and labels:
[1] = test system: PANC-1; assay: Antiproliferative activity against human PANC1 cells assessed as reduction in cell viability after 72 hrs by WST-8 assay; assay type: functional, cell-based; conditions: PANC-1, 72 h
[2] = test system: HeLa; assay: Antiproliferative activity against human HeLa cells assessed as reduction in cell viability after 72 hrs by WST-8 assay; assay type: functional, cell-based
[3] = test system: PANC-1; assay: Cytotoxicity against human PANC1 cells assessed as reduction in cell viability at 0.78 uM after 74 hrs by crystal violet staining based assay; assay type: functional
[4] = test system: PANC-1; assay: Cytotoxicity against human PANC1 cells assessed as reduction in cell viability at 0.05 to 100 uM after 74 hrs by crystal violet staining based assay; assay type: functional

Compound | pIC50 [1] | pIC50 [2] | Activity [3] [%] | Activity [4]
C[C@H]1O[C@@H](O[C@@H]2CC[C@@]34CO[C@@]5(CC[C@@H]3C2)[C@@H]4CC[C@]2(C)[C@H](C3=CC(=O)OC3)CC[C@@H]25)[C@H](O)[C@H](O)[C@@H]1O | 5.34 | < 5.00 |  | 
C[C@]12CC[C@H]3[C@@H](CC[C@@H]4C[C@H](O[C@@H]5O[C@H](CO)[C@@H](O)[C@@H](O[C@H]6O[C@H](CO)[C@@H](O)[C@H](O)[C@H]6O)[C@H]5O)CC[C@@]43CO)[C@@]1(O)CC[C@@H]2C1=CC(=O)OC1 | 7.10 | 6.77 | 100 | 
Nc1ccn([C@@H]2O[C@H](CO)[C@@H](O)C2(F)F)c(=O)n1 [GEMCITABINE] | 5.23 |  |  | inactive
C[C@]12CC[C@H]3[C@@H](CC[C@@H]4C[C@H](O[C@@H]5O[C@H](CO)[C@@H](O)[C@@H](O)[C@H]5O)CC[C@@]43COC=O)[C@@]1(O)CC[C@@H]2C1=CC(=O)OC1 | 6.60 | 6.17 |  | 
C[C@]12CC[C@H]3[C@@H](CC[C@@H]4C[C@H](O[C@@H]5O[C@H](CO)[C@@H](O)[C@@H](O)[C@H]5O)CC[C@@]43CO)[C@@]1(O)CC[C@@H]2C1=CC(=O)OC1 | 6.55 | 6.25 |  | 
COC(=O)[C@@]1(C)C[C@@H](C)O[C@H]1O[C@@H]1C[C@H]2CC[C@@H]3[C@H](CC[C@]4(C)[C@@H](C5=CC(=O)OC5)C[C@@H](O)[C@]34O)[C@@]2(C(=O)O)C[C@H]1O | 5.28 | < 5.00 |  | 
C[C@]12CC[C@H]3[C@@H](CC[C@@H]4C[C@H](O[C@@H]5O[C@H](CO)[C@@H](O)[C@H](O[C@H]6O[C@H](CO)[C@@H](O)[C@H](O)[C@H]6O)[C@H]5O)CC[C@@]43CO)[C@@]1(O)CC[C@@H]2C1=CC(=O)OC1 | 7.15 | 6.77 | 100 | 
C[C@]12CC[C@H]3[C@@H](CC[C@@H]4C[C@@H](O)[C@H](O)C[C@@]43C=O)[C@@]1(O)[C@H](O)C[C@@H]2C1=CC(=O)OC1 | < 5.00 | < 5.00 |  | 
C[C@H]1C[C@@](O)(CC(=O)O)[C@]2(O)O[C@@H]3C[C@@]4(C=O)[C@@H](CC[C@@H]5[C@@H]4CC[C@]4(C)[C@@H](C6=CC(=O)OC6)CC[C@]54O)C[C@H]3O[C@H]2O1 | 6.00 | 5.80 |  | 
C[C@]12CC[C@H]3[C@@H](CC[C@@H]4C[C@@H](O)[C@H](O)C[C@@]43CO)[C@@]1(O)CC[C@@H]2C1=CC(=O)OC1 | 5.29 | < 5.00 |  | 
C[C@]12CC[C@H]3[C@@H](CC[C@@H]4C[C@@H](O[C@@H]5O[C@H](CO)[C@@H](O)[C@@H](O)[C@H]5O)CC[C@@]43C=O)[C@@]1(O)CC[C@@H]2C1=CC(=O)OC1 | 6.82 | 6.42 |  | 
C[C@@H]1C[C@H](O)[C@]2(O)O[C@@H]3C[C@@]4(C=O)[C@@H](CC[C@@H]5[C@@H]4CC[C@]4(C)[C@@H](C6=CC(=O)OC6)CC[C@]54O)C[C@H]3O[C@@H]2O1 [CALOTROPIN] | < 5.00 | < 5.00 |  | 
